The source of these data is BindingDB's records for doi:10.1021/jm500308c (University Jena, 2014).

The target in assay [1] is Signal transducer and activator of transcription 3 (Homo sapiens, UniProt P40763). In words: Inhibition of STAT3 transcriptional activity in human HaCaT cells after 6 hrs by luciferase reporter gene assay. (In general: In a reporter assay the amount or activity of a reporter protein is the signal.)
The target in assay [2] is T1, Nuclear factor erythroid 2-related factor 2 (Homo sapiens, UniProt Q16236).
T1 sequence (Q16236 whole entry): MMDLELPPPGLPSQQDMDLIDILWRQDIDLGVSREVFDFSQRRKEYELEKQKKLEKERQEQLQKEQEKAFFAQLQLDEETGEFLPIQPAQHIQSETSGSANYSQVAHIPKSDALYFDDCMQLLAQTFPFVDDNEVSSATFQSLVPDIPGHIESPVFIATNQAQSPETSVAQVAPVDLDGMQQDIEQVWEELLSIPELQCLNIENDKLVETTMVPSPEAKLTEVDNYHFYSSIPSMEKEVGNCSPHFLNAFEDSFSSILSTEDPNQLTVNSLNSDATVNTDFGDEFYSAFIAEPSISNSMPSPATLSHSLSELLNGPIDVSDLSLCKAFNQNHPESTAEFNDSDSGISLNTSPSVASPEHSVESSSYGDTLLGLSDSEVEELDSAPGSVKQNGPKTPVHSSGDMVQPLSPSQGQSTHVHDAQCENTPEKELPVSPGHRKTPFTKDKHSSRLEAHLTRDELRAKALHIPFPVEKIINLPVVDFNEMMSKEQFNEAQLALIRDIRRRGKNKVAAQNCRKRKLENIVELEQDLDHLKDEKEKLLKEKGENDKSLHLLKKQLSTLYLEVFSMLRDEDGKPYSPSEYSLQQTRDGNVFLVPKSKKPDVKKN
Kind of assay: Activation of Nrf2 transcriptional activity in human LNCaP cells after 6 hrs by luciferase reporter gene assay relative to tert-butylhydroquinone.

A value given as a limit tells only on which side of the number the result lay.

Signal transducer and activator of transcription 3, sequence (P40763 whole entry): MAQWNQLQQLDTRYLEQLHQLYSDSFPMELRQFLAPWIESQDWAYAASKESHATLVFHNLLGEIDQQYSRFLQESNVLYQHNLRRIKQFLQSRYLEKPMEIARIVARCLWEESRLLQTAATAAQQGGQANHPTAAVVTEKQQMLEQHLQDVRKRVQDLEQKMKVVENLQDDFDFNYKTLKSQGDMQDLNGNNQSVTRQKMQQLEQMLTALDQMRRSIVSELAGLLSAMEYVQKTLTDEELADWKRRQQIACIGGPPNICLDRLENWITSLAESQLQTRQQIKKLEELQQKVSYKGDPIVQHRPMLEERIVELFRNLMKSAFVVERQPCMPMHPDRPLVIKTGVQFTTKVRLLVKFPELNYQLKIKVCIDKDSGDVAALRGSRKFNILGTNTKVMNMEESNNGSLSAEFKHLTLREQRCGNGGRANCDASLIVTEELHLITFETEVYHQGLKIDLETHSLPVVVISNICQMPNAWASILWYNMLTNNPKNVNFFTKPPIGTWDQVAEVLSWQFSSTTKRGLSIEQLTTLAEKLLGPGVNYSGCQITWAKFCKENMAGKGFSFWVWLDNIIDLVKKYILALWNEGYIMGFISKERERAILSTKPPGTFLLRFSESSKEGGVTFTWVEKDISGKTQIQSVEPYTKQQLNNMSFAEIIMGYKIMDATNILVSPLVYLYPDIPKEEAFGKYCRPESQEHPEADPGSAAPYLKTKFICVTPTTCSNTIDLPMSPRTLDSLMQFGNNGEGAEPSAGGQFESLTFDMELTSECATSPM

In assay [1], `COc1cc(/C=C/c2cc(/C=C/c3ccc(O)c(OC)c3)[nH]n2)ccc1O` [4-(2-(5-(4-hydroxy-3-methoxystyryl)-1H-pyrazol-3-yl)vinyl)-2-methoxyphenol] gave a concentration for half-maximal inhibition (IC50) of 16.2 µM.
`COc1cc(/C=C/C(=O)CC(=O)c2ccc(O)c(OC)c2)ccc1O`: the 50% inhibitory concentration (IC50) in assay [1] came to 35.7 µM.
The compound `COc1cc(CCC(=O)CC(=O)CCc2cc(CCC(C)C)c(O)c(OC)c2)cc(CCC(C)C)c1O` came in with a 50% inhibitory concentration (IC50) in assay [1] above 50 µM.
`COc1cc(/C=C/C(=O)/C=C/c2cc(CC=C(C)C)c(O)c(OC)c2)cc(CC=C(C)C)c1O` gave an IC50 in assay [1] of 22.4 µM.
As for `COc1cc(/C=C/c2cc(-c3ccc(O)c(OC)c3)[nH]n2)ccc1O`, in assay [1], 18.2 µM corresponded to half-maximal inhibition (IC50).
`COc1cc(/C=C/C(=O)CC(=O)/C=C/c2cc(F)c(O)c(OC)c2)cc(F)c1O` gave an IC50 in assay [1] of 15.6 µM. This compound also came in with a concentration for a half-maximal effect (EC50) in assay [2] of 8.6 µM.
The compound `COc1cc(/C=C/c2cc(/C=C/c3cc(CC=C(C)C)c(O)c(OC)c3)[nH]n2)cc(CC=C(C)C)c1O` returned an IC50 in assay [1] above 50 µM.
In assay [1], `COc1cc(CCC(=O)CC(=O)CCc2ccc(O)c(OC)c2)ccc1O` [1,7-Bis-(4-hydroxy-3-methoxy-phenyl)-heptane-3,5-dione] came in with an IC50 above 50 µM.
In the case of `COc1cc(C=CC(=O)CC(=O)C=Cc2ccc(O)c(OC)c2)ccc1O`, a half-maximal effect in assay [2] (EC50) was put at 9.9 µM. This counts as single-digit micromolar.
On to `COc1cc(/C=C/C(=O)/C=C/c2ccc(O)c(OC)c2)ccc1O` [(1E,4E)-1,5-Bis-(4-hydroxy-3-methoxy-phenyl)-penta-1,4-dien-3-one], for which, in assay [1], the IC50 stood at 6 µM. Moreover, the EC50 in assay [2] was found to be 0.9 µM.
The compound `COc1cc(/C=C/C(=O)/C=C/c2cc(F)c(O)c(OC)c2)cc(F)c1O` came in with an IC50 in assay [1] of 19.4 µM. In addition, in assay [2], the EC50 was 3.1 µM.
In assay [1], `COc1cc(/C=C/C(=O)CC(=O)/C=C/c2cc(CC=C(C)C)c(O)c(OC)c2)cc(CC=C(C)C)c1O` gave an IC50 above 50 µM.

Broadly, the IC50 is the point on the concentration scale where inhibition reaches its midpoint. A low value points to higher potency. The term EC50 denotes the concentration needed to bring the measured effect to its halfway point. Higher therefore signals weaker potency.
